The values below come from patent US20100179093A1, “Neoropeptide-2-Receptor (Y-2R) Agonists” (priority 2008, published 2010).

What all share (type): cell-based
One assay addresses T1, Y1R (Homo sapiens, UniProt P25929).
T1 sequence (P25929 1-384): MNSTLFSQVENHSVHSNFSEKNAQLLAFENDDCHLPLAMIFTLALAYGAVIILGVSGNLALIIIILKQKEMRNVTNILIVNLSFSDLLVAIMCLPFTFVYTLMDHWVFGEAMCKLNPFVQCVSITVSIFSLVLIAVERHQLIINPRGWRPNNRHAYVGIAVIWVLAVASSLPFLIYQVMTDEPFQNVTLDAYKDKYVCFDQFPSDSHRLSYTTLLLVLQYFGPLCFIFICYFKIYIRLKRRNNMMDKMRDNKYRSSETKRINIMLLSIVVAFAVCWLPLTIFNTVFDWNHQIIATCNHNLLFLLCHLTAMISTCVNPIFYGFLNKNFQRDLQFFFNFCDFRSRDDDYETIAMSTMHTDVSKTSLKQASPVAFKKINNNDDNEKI
Kind of assay: CaFlux Assay (FLIPR), Y1R.

A further assay has as its target Y4R (Homo sapiens, UniProt P50391). Kind of assay: CaFlux Assay (FLIPR), Y4R.
Another assay addresses T2, Y5R (Homo sapiens, UniProt Q15761).
T2 sequence (Q15761 1-445): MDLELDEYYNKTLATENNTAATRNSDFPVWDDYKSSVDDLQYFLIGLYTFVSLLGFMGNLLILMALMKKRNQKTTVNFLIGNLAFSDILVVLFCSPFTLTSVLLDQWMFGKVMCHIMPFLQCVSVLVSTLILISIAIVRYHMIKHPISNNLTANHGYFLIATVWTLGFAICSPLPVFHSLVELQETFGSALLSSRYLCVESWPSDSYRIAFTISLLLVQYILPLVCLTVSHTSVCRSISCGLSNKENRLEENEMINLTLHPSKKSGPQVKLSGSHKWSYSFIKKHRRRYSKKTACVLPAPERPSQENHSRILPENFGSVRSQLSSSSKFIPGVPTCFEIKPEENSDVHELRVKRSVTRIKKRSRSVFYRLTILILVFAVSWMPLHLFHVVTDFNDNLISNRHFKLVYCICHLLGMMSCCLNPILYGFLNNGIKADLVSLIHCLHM
In words: CaFlux Assay (FLIPR), Y5R.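 On Emax: percent of the maximal response of the positive control agonist.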 The conditions noted are these: for Emax: read-out: Y5R FLIPR, percentage in parentheses under the EC50.

For assay [1], the target named is T3, hNPY2R (Homo sapiens, UniProt P49146).
T3 sequence (P49146 1-381): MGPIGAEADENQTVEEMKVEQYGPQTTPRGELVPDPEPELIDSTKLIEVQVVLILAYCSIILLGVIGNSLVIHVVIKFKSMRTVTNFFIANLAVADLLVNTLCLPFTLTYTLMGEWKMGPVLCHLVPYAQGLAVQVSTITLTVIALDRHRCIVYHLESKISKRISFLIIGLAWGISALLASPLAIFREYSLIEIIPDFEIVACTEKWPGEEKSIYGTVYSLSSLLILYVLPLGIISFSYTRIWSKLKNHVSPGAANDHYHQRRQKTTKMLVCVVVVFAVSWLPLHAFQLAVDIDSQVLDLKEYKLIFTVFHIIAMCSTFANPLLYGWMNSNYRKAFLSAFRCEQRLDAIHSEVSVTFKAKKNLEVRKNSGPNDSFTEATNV
In words: cAMP Agonist Assay, HEK293/hNPY2R cells. Also noted: expressed in transfected cells; host or cells: HEK293/hNPY2R (G418 selection).
Experimental: On the first day, medium was discarded, and the monolayer cells were washed with 10 mL PBS per flask (T225). […] The flask was gently tapped and the cell suspension was pooled. Each flask was rinsed with 10 mL plating medium and centrifuged at 1000 rpm for 5 min. The suspension was pooled and counted. The suspension was resuspended in plating medium at a density of 2.0×10^5 cells/mL for HEK293/hNPY2R. 50 microliters of cells (HEK293/hNPY2R-10,000 cells/well) were transferred into the 384-well plate using Multi-drop dispenser. The plates were incubated at 37° C. overnight. […] The media and reagents were allowed to come to room temperature. Before the dilutions were prepared, the stock solution of stimulating compound in dimethyl sulphoxide (DMSO, Sigma, cat #D2650) was allowed to warm up to 32 C for 5-10 min. […] The cell medium was tapped off with a gentle inversion of the cell plate on a paper towel. 50 μL of stimulation medium was placed per well (each concentration done in four replicates). The plates were incubated at room temperature for 30 min, and the cells were checked under a microscope for toxicity. After 30 minutes of treatment, the stimulation media was discarded and 50 mL/well of Assay Lysis Buffer (provided in the Tropix kit) was added. The plates were incubated for 45 min@37° C. 20 μL of the lysate was transferred from stimulation plates into the pre-coated antibody plates (384-well) from the Tropix kit. 10 μL of AP conjugate and 20 μL of anti-cAMP antibody was added. The plates were incubated at room temperature while shaking for 1 hour. The plates were then washed 5 times with Wash Buffer, 70 μL per well for each wash. The plates were tapped to dry. 30 μL/well of CSPD/Saphire-II RTU substrate/enhancer solution was added and incubated for 45 min @ RT (shake). Signal for 1 sec/well in a Luminometer.

In assay [2] the target is T3, hNPY2R. In words: CaFlux Assay (FLIPR), Y2R. Also noted: expressed in transfected cells; host or cells: HEK-293 stably expressing G protein chimera Gaqi9.
Experimental: Hek-293 cells were stably transfected with the G protein chimera Gaqi9 and the hygromycin-B resistance gene were further transfected with the human NPY2 receptor and G418 antibiotic selection. Following selection in both hygromycin-B and G418, individual clones were assayed for their response to PYY. The transfected cells were cultured in DMEM medium supplemented with 10% fetal bovine serum, 50 μg/mL hygromycin-B 2 mM glutamine, 100 U/mL penicillin, 100 μg/mL streptomycin and 250 μg/mL G418. Cells are harvested with trypsin-EDTA and counted using ViaCount reagent. The cell suspension volume is adjusted to 4.8×10^5 cells/mL with complete growth media. Aliquots of 25 μL are dispensed into 384 well Poly-D Lysine coated black/clear microplates (Falcon) and the microplates were placed in a 37° C. CO2 incubator overnight. Loading Buffer (Calcium-3 Assay Kit, Molecular Devices) was prepared by dissolving the contents of one vial (Express Kit) into 1000 mL Hank's Balanced Salt Solution containing 20 mM HEPES and 5 mM probenecid. Aliquots of 25 μL of diluted dye were dispensed into the cell plates and the plates are then incubated for 1 hour at 37° C. During the incubation, test compounds were prepared at 3.5× the desired concentration in HBSS (20 mM HEPES)/0.05% BSA/1% DMSO and transferred to a 384 well plate for use on FLIPR. After incubation, both the cell and compound plates were brought to the FLIPR and 20 μL of the diluted compounds were transferred to the cell plates by the FLIPR. During the assay, fluorescence readings were taken simultaneously from all 384 wells of the cell plate every 1.5 seconds. Five readings were taken to establish a stable baseline, and then 20 μL of sample was rapidly (30 μL/sec) and simultaneously added to each well of the cell plate. The fluorescence was continuously monitored before, during and after sample addition for a total elapsed time of 100 seconds. Responses (increase in peak fluorescence) in each well following addition were determined. The initial fluorescence reading from each well, prior to ligand stimulation, was used as a zero baseline value for the data from that well. The responses are expressed as % of maximal response of the positive control.

Like-named read-outs stand apart in the source and are kept apart here.

Chain of Y4R (P50391 whole entry): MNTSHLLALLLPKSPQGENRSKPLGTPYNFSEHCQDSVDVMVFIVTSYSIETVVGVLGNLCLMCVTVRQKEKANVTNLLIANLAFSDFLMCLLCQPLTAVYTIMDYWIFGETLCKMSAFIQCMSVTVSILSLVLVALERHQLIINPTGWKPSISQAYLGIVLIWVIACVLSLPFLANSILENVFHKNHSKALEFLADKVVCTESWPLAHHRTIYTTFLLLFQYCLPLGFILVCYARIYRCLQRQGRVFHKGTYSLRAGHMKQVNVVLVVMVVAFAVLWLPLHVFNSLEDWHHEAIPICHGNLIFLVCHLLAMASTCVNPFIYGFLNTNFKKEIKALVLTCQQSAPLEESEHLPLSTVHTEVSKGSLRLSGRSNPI

`CCCCCCCCCCCCCCCC(=O)NCCCCCC(=O)N[C@H](C(=O)N[C@@H](CCCCN)C(=O)N1CCN(c2ccc3ncn(CC(=O)N[C@@H](CCCNC(=N)N)C(=O)N[C@@H](Cc4c[nH]cn4)C(=O)N[C@@H](Cc4ccc(O)cc4)C(=O)N[C@@H](CC(C)C)C(=O)N[C@@H](CC(N)=O)C(=O)N[C@@H](Cc4c[nH]c5ccccc45)C(=O)N[C@H](C(=O)N[C@H](C(=O)N[C@@H](CCCNC(=N)N)C(=O)N[C@@H](CCC(N)=O)C(=O)N[C@@H](CCCNC(=N)N)C(=O)N[C@@H](Cc4ccc(O)cc4)C(N)=O)[C@@H](C)O)C(C)C)c(=O)c3c2)CC1)[C@@H](C)CC` [Example 17]: the concentration giving a half-maximal response (EC50) (in general, the concentration needed to bring the measured effect to its halfway point) at Y1R was > 5000 nM; on Y4R it was 14500 nM; at Y5R, 27 nM; at hNPY2R [1], 0.25 nM; on hNPY2R [2] it was 0.09 nM.
For the compound `CCCCCCCCCCCCCCCC(=O)NCCOCCNC(=O)CCC(=O)NCCCC[C@H](NC(=O)[C@@H](N)[C@@H](C)CC)C(=O)N1CCN(c2ccc3ncn(CC(=O)N[C@@H](CCCNC(=N)N)C(=O)N[C@@H](Cc4c[nH]cn4)C(=O)N[C@@H](Cc4ccc(O)cc4)C(=O)N[C@@H](CC(C)C)C(=O)N[C@@H](CC(N)=O)C(=O)N[C@@H](Cc4c[nH]c5ccccc45)C(=O)N[C@H](C(=O)N[C@H](C(=O)N[C@@H](CCCNC(=N)N)C(=O)N[C@@H](CCC(N)=O)C(=O)N(C)[C@@H](CCCNC(=N)N)C(=O)N[C@@H](Cc4ccc(O)cc4)C(N)=O)[C@@H](C)O)C(C)C)c(=O)c3c2)CC1` [Example 38], the EC50 on Y1R is > 5000 nM; at Y4R, > 5000 nM; at Y5R, 644 nM; at hNPY2R [1], 0.17 nM; at hNPY2R [2], 0.003 nM. Further, the Emax at Y5R stood at 83%.
Take `CCCCCCCCCCCCCCCC(=O)NCCCC[C@H](NC(=O)[C@@H](N)[C@@H](C)CC)C(=O)N1CCN(c2ccc3ncn(CC(=O)N[C@@H](CCCNC(=N)N)C(=O)N[C@@H](Cc4c[nH]cn4)C(=O)N[C@@H](Cc4ccc(O)cc4)C(=O)N[C@@H](CC(C)C)C(=O)N[C@@H](CC(N)=O)C(=O)N[C@@H](Cc4c[nH]c5ccccc45)C(=O)N[C@H](C(=O)N[C@H](C(=O)N[C@@H](CCCNC(=N)N)C(=O)N[C@@H](CCC(N)=O)C(=O)N(C)[C@@H](CCCNC(=N)N)C(=O)N[C@@H](Cc4ccc(O)cc4)C(N)=O)[C@@H](C)O)C(C)C)c(=O)c3c2)CC1` [Example 14]: the EC50 on Y1R was > 5000 nM; on Y4R, > 5000 nM; at Y5R it was 12700 nM; on hNPY2R [1], 1 nM; on hNPY2R [2], 0.73 nM.
As for `CCCCCCCCCCCCCCCC(=O)N[C@@H](CO)C(=O)N[C@@H](CO)C(=O)NCCCC[C@H](NC(=O)[C@@H](N)[C@@H](C)CC)C(=O)N1CCN(c2ccc3ncn(CC(=O)N[C@@H](CCCNC(=N)N)C(=O)N[C@@H](Cc4c[nH]cn4)C(=O)N[C@@H](Cc4ccc(O)cc4)C(=O)N[C@@H](CC(C)C)C(=O)N[C@@H](CC(N)=O)C(=O)N[C@@H](Cc4c[nH]c5ccccc45)C(=O)N[C@H](C(=O)N[C@H](C(=O)N[C@@H](CCCNC(=N)N)C(=O)N[C@@H](CCC(N)=O)C(=O)N(C)[C@@H](CCCNC(=N)N)C(=O)N[C@@H](Cc4ccc(O)cc4)C(N)=O)[C@@H](C)O)C(C)C)c(=O)c3c2)CC1` [Example 40], the EC50 at Y1R is > 5000 nM; on Y4R it was > 5000 nM; on Y5R, 602 nM; at hNPY2R [1], 0.18 nM; at hNPY2R [2], 0.36 nM. In addition, the Emax at Y5R is 85%.
Turning to `CCCCCCCCCCCCCCCC(=O)N[C@@H](CCC(=O)N[C@@H](CCC(=O)NCCCC[C@H](NC(=O)[C@@H](N)[C@@H](C)CC)C(=O)N1CCN(c2ccc3ncn(CC(=O)N[C@@H](CCCNC(=N)N)C(=O)N[C@@H](Cc4c[nH]cn4)C(=O)N[C@@H](Cc4ccc(O)cc4)C(=O)N[C@@H](CC(C)C)C(=O)N[C@@H](CC(N)=O)C(=O)N[C@@H](Cc4c[nH]c5ccccc45)C(=O)N[C@H](C(=O)N[C@H](C(=O)N[C@@H](CCCNC(=N)N)C(=O)N[C@@H](CCC(N)=O)C(=O)N(C)[C@@H](CCCNC(=N)N)C(=O)N[C@@H](Cc4ccc(O)cc4)C(N)=O)[C@@H](C)O)C(C)C)c(=O)c3c2)CC1)C(=O)O)C(=O)O` [Example 25], the concentration giving a half-maximal response (EC50) is > 5000 nM at Y1R; > 5000 nM at Y4R; 443 nM at Y5R; 0.22 nM at hNPY2R [1]; 0.08 nM on hNPY2R [2]. On Y5R, the Emax stood at 70%.
`CCCCCCCCCCCCCCCC(=O)N[C@@H](CCC(=O)O)C(=O)N[C@@H](CCC(=O)O)C(=O)NCCCC[C@H](NC(=O)[C@@H](N)[C@@H](C)CC)C(=O)N1CCN(c2ccc3ncn(CC(=O)N[C@@H](CCCNC(=N)N)C(=O)N[C@@H](Cc4c[nH]cn4)C(=O)N[C@@H](Cc4ccc(O)cc4)C(=O)N[C@@H](CC(C)C)C(=O)N[C@@H](CC(N)=O)C(=O)N[C@@H](Cc4c[nH]c5ccccc45)C(=O)N[C@H](C(=O)N[C@H](C(=O)N[C@@H](CCCNC(=N)N)C(=O)N[C@@H](CCC(N)=O)C(=O)N(C)[C@@H](CCCNC(=N)N)C(=O)N[C@@H](Cc4ccc(O)cc4)C(N)=O)[C@@H](C)O)C(C)C)c(=O)c3c2)CC1` [Example 23]: the EC50 is > 5000 nM on Y1R (FLIPR, read-out: Y1R EC50 (nM) FLIPR); > 5000 nM at Y4R (FLIPR, read-out: Y4R EC50 (nM) FLIPR); 459 nM on Y5R (FLIPR, read-out: Y5R EC50 (nM) FLIPR); 0.29 nM at hNPY2R [1] (HEK293/hNPY2R, Forskolin 5 μM, read-out: Y2R EC50 (nM) cAMP); 0.033 nM on hNPY2R [2] (FLIPR calcium flux, Hek-293 cells with Gaqi9 and human NPY2 receptor, read-out: Y2R EC50 (nM) FLIRR). In addition, at Y5R, the Emax was determined as 70%.
As for `CCCC(=O)NCCCC[C@H](NC(=O)[C@@H](NC(C)=O)[C@@H](C)CC)C(=O)N1CCN(c2ccc3ncn(CC(=O)N[C@@H](CCCNC(=N)N)C(=O)N[C@@H](Cc4c[nH]cn4)C(=O)N[C@@H](Cc4ccc(O)cc4)C(=O)N[C@@H](CC(C)C)C(=O)N[C@@H](CC(N)=O)C(=O)N[C@@H](Cc4c[nH]c5ccccc45)C(=O)N[C@H](C(=O)N[C@H](C(=O)N[C@@H](CCCNC(=N)N)C(=O)N[C@@H](CCC(N)=O)C(=O)N(C)[C@@H](CCCNC(=N)N)C(=O)N[C@@H](Cc4ccc(O)cc4)C(N)=O)[C@@H](C)O)C(C)C)c(=O)c3c2)CC1` [Example 5], the EC50 at Y1R was > 5000 nM; at Y4R, 31600 nM; at Y5R, 24900 nM; at hNPY2R [1] it was 0.39 nM; on hNPY2R [2], 0.18 nM.
With `CCCCCCCCCCCC(=O)NCCCCCC(=O)NCCCC[C@H](NC(=O)[C@@H](N)[C@@H](C)CC)C(=O)N1CCN(c2ccc3ncn(CC(=O)N[C@@H](CCCNC(=N)N)C(=O)N[C@@H](Cc4c[nH]cn4)C(=O)N[C@@H](Cc4ccc(O)cc4)C(=O)N[C@@H](CC(C)C)C(=O)N[C@@H](CC(N)=O)C(=O)N[C@@H](Cc4c[nH]c5ccccc45)C(=O)N[C@H](C(=O)N[C@H](C(=O)N[C@@H](CCCNC(=N)N)C(=O)N[C@@H](CCC(N)=O)C(=O)N(C)[C@@H](CCCNC(=N)N)C(=O)N[C@@H](Cc4ccc(O)cc4)C(N)=O)[C@@H](C)O)C(C)C)c(=O)c3c2)CC1` [Example 9], the EC50 was > 5000 nM on Y1R; 2450 nM on Y4R; 3790 nM at Y5R; 3.5 nM on hNPY2R [1]; 0.031 nM at hNPY2R [2].
